Twelve compounds from PubChem BioAssay (NCI) can be followed below.

Among the test systems are RXF 393 renal; BT-549 breast; SF-539 CNS; HT29 colon; SF-295 CNS; HOP-62 NSCLC; NCI-H23 lung; TK-10 renal; SF-268 CNS; EKVX NSCLC.
What all share (assay): inhibition of tumour cell growth, NCI panel, 48 h

SMILES strings stand for the structures.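 All cell lines were grown in 96-well plates and treated with compound for 48 hours. GI50 marks 50% less growth. TGI is the concentration that stops growth completely.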

As for `CCOC(=O)c1ccccc1NC(c1ccccc1)c1ccc2cccnc2c1O` (stereo not given), the GI50 in the assay on RXF 393 renal is 3.11 µM; in the assay with BT-549 breast, 4.25 µM; in the assay with SF-539 CNS, 2.52 µM; with HT29 colon, 4.58 µM; with SF-295 CNS, 3.24 µM; in the assay with HOP-62 NSCLC, 3.31 µM. Moreover, the GI50 in the assay with NCI-H23 lung is 4.22 µM; with TK-10 renal it was 5.52 µM; with SF-268 CNS it was 3.14 µM. Moreover, the TGI in the assay with RXF 393 renal is 23.2 µM; in the assay on BT-549 breast it was 16.7 µM; with SF-539 CNS, 10.2 µM; with HT29 colon, > 100 µM; with SF-295 CNS it was > 100 µM; in the assay with HOP-62 NSCLC, > 100 µM. For the same compound, the figures for the TGI with NCI-H23 lung, with TK-10 renal and with SF-268 CNS were > 100 µM, > 100 µM and 29 µM, respectively.

With `COC(=O)c1cc2c([nH]c3ccccc32)c(-c2nc3cc(N(S(=O)(=O)c4ccc(C)cc4)S(=O)(=O)c4ccc(C)cc4)c(OC)cc3cc2CO)n1`, the GI50 with RXF 393 renal was > 100 µM; in the assay with EKVX NSCLC it was > 100 µM; with BT-549 breast, > 100 µM; in the assay with SF-539 CNS, 56.1 µM; with HT29 colon, > 100 µM; with SF-295 CNS, > 100 µM. In addition, the GI50 with NCI-H23 lung, with TK-10 renal and in the assay on SF-268 CNS was > 100 µM each time. Also, the TGI in the assay with RXF 393 renal, with EKVX NSCLC, in the assay with BT-549 breast, in the assay with SF-539 CNS, in the assay on HT29 colon and in the assay on SF-295 CNS was > 100 µM each time. The TGI with NCI-H23 lung, with TK-10 renal and with SF-268 CNS was > 100 µM throughout.

Turning to `O=C1OC2C(O)COC2(OCc2c[nH]c3ccccc23)C1O` (stereo not given) (tested in a mixture with another compound), the TGI in the assay with RXF 393 renal, in the assay on EKVX NSCLC, with SF-539 CNS, in the assay with HT29 colon, in the assay with SF-295 CNS and in the assay with HOP-62 NSCLC was > 100 µM each time. For the same compound, the TGI in the assay with NCI-H23 lung, with TK-10 renal and with SF-268 CNS was > 100 µM throughout.

As to `CC(=O)NC1C(=O)CC(c2ccccc2)N(C)C1c1ccccc1` (stereo not given), the TGI in the assay on RXF 393 renal, with EKVX NSCLC, with SF-539 CNS, in the assay with HT29 colon, in the assay on SF-295 CNS and in the assay with HOP-62 NSCLC was > 100 µM each time. For the same compound, the TGI with NCI-H23 lung, in the assay on TK-10 renal and in the assay with SF-268 CNS was > 100 µM each time.

For `CC1CCCC2(O1)OC1CC(=O)OC1C1=C2C(=O)c2ccccc2C1=O` (stereo not given), the TGI was 4.14 µM with RXF 393 renal; 14.2 µM with EKVX NSCLC; 19.9 µM in the assay with SF-539 CNS; 11 µM in the assay with HT29 colon; 32 µM in the assay with SF-295 CNS; 30.2 µM with HOP-62 NSCLC. Also, the TGI stood at 19.7 µM in the assay on NCI-H23 lung, 21 µM in the assay on TK-10 renal and 14.9 µM in the assay on SF-268 CNS.

Regarding `Cn1cc(C2=C(c3cn(CCCSC(=N)N)c4ccccc34)C(=O)NC2=O)c2ccccc21`, the GI50 with RXF 393 renal is 1.18 µM; in the assay on BT-549 breast, 4.83 µM; in the assay with SF-539 CNS, 1.9 µM; in the assay with HT29 colon it was 2.73 µM; in the assay on SF-295 CNS, 5.19 µM; with HOP-62 NSCLC it was 2.36 µM. For the same compound, the GI50 was 3.32 µM in the assay with NCI-H23 lung, 3.88 µM in the assay on TK-10 renal and 1.76 µM with SF-268 CNS. In addition, the TGI in the assay with RXF 393 renal turned out to be 2.82 µM; in the assay with BT-549 breast it was 10.8 µM; in the assay with SF-539 CNS, 5.16 µM; with HT29 colon it was 11.1 µM; in the assay with SF-295 CNS, 14.1 µM; in the assay with HOP-62 NSCLC, 7.39 µM. Moreover, the TGI in the assay with NCI-H23 lung is 9.72 µM; in the assay on TK-10 renal, 10.7 µM; in the assay on SF-268 CNS, 7.52 µM.

For `COCC(O)CN1C(N)=NC(O)C1O` (stereo not given), the TGI in the assay with RXF 393 renal, in the assay with EKVX NSCLC, with SF-539 CNS, with HT29 colon, with SF-295 CNS and in the assay with HOP-62 NSCLC was > 100 µM in each case. Also, the TGI with NCI-H23 lung, in the assay with TK-10 renal and in the assay with SF-268 CNS was > 100 µM throughout.

In the case of `CCOc1ccccc1Nc1nc(C)c(C(=O)CC(=O)C(=O)Nc2ccccc2)s1`, the TGI with RXF 393 renal, with EKVX NSCLC, with SF-539 CNS, with HT29 colon, in the assay on SF-295 CNS and with HOP-62 NSCLC was > 100 µM throughout. Also, the TGI in the assay on NCI-H23 lung, with TK-10 renal and in the assay on SF-268 CNS was > 100 µM each time.

With `CCCC1C2=C(C(=O)OC2=O)C2C(CC)CC3=C(C(=O)OC3=O)C12` (stereo not given), the TGI in the assay with EKVX NSCLC, in the assay on BT-549 breast, in the assay on SF-539 CNS, in the assay on HT29 colon, in the assay with SF-295 CNS and in the assay with HOP-62 NSCLC was > 100 µM each time. The TGI in the assay with NCI-H23 lung, in the assay with TK-10 renal and with SF-268 CNS was > 100 µM in each case.

With `COc1cc(C2C(C(=O)Nc3ccc(Cl)c(Cl)c3)=C(C)NC(C)=C2C(=O)Nc2ccc(Cl)c(Cl)c2)ccc1O`, the TGI is 12.8 µM in the assay with RXF 393 renal; 28.1 µM in the assay on EKVX NSCLC; 24.9 µM with SF-539 CNS; 31.7 µM in the assay on HT29 colon; 34.5 µM in the assay with SF-295 CNS; 23.1 µM with HOP-62 NSCLC. For the same compound, the TGI in the assay on NCI-H23 lung is 27.5 µM; with TK-10 renal, 42.6 µM; with SF-268 CNS it was 30.8 µM.

Take `O=C(/C=C\c1ccc(Cl)c(Cl)c1)c1ccccc1`: the GI50 in the assay on RXF 393 renal is 12.3 µM; in the assay with BT-549 breast it was 9.85 µM; in the assay with SF-539 CNS, 15.3 µM; in the assay with HT29 colon, 2.27 µM; in the assay on SF-295 CNS it was 10.9 µM; in the assay on HOP-62 NSCLC it was 17.3 µM. The GI50 in the assay with SF-268 CNS was 11.1 µM. Besides, the TGI in the assay on RXF 393 renal is 26.6 µM; in the assay on BT-549 breast it was 22 µM; in the assay with SF-539 CNS, 29.6 µM; in the assay with HT29 colon, 5.37 µM; with SF-295 CNS, 23.2 µM; with HOP-62 NSCLC, 35.1 µM. The TGI in the assay with SF-268 CNS came to 24.7 µM.

For the compound `O=C1[C@@H]2C3C=CC([C@H]4C(=O)N(CO)C(=O)[C@@H]34)[C@@H]2C(=O)N1CO`, the TGI with RXF 393 renal was > 77.8 µM; in the assay with EKVX NSCLC, > 100 µM; in the assay on SF-539 CNS, > 100 µM; in the assay on HT29 colon, > 100 µM; with SF-295 CNS it was > 100 µM; in the assay with HOP-62 NSCLC it was > 100 µM. Further, the TGI was > 100 µM with NCI-H23 lung, > 100 µM in the assay on TK-10 renal and > 77.7 µM in the assay with SF-268 CNS.
